Where two headings read alike, the source gives them in different places.
What was measured:
PC12 cells = assay: Neuroprotective activity against Aβ25-35 induced PC12 cell death by MTT assay; format: cell-based; settings: for Cell viability: Aβ25-35-induced cell damage in PC12 cells, control = 1.000, model (Aβ25-35) = 0.633, test concentration not given; for EC50: Rattus norvegicus
Protocol: Meanwhile, all isolated compounds were evaluated for their neuroprotective potency against the Aβ25-35 induced PC12 cell death by MTT assay.
A cell viability assay was conducted to test the cytotoxic effects of the compounds on PC12 cells. Meanwhile, the neuroprotective activity of all compounds against the Aβ25-35 induced PC12 cell death by MTT assay. PC12 cells were divided into four groups: normal control, model, positive control (Resveratrol), and isolates intervention groups (1, 10, 20, 40, 60, 80, 100 μmol/L). Detailed experimental procedures and experimental data can be found in the Supporting Information.
Cell culture. […] The cells were maintained at 37°C in a humidified atmosphere containing 5% CO2. The culture medium was replaced every three days, and the cells were passaged when they reached 70% confluency.
Preparation of Aβ25-35. Aβ25-35 was dissolved in sterile double-distilled water to prepare a 2 mM stock solution. The solution was then incubated at 37°C for 7 days to induce aggregation.
MTT assay for cell viability. PC12 cells were divided into four groups: normal control, model, positive control (Resveratrol), and isolates intervention groups (1, 10, 20, 40, 60, 80, 100 μmol/L). The cells were seeded in 96-well plates at an appropriate density with 200 μL medium per well and were cultured for 24 hours. The positive control and intervention groups were pretreated with different concentrations of drug-containing medium for 2 hours, after which 2 μL of Aβ25-35 was added to each well of the model, positive control, and intervention groups for 24 hours. After the treatment, 20 μL of […] MTT solution was added to each well and incubated for 4 hours. The medium was then removed, and 150 μL of DMSO was added to each well. The plate was shaken until the formazan product was completely dissolved. The absorbance was measured at 570 nm using a spectrophotometer.

[1] = biological target: acetylcholinesterase (AChE) (Homo sapiens, UniProt P22303); assay: biochemical
acetylcholinesterase (AChE), sequence (P22303 32-614, species assumed): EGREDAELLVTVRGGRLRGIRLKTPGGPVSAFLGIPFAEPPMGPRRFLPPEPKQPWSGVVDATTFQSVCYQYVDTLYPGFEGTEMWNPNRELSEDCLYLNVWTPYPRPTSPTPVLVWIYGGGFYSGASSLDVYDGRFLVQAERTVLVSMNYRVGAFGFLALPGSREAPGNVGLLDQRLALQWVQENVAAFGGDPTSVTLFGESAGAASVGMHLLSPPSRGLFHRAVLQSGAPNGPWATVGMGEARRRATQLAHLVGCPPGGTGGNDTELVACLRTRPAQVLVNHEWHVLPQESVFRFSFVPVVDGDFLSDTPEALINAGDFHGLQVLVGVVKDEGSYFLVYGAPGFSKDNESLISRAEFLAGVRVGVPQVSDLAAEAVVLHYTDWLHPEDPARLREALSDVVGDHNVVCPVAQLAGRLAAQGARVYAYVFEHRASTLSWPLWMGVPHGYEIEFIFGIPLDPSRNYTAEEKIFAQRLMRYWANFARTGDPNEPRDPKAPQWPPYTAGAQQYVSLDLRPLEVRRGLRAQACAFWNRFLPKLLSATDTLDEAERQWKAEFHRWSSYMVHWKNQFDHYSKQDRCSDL
Protocol: The first and the main class of drugs currently used for AD are the AChE inhibitors and are widely used for the symptomatic treatment of mild-moderate AD [2]. All alkaloids were screened toward AChE via improved Ellman’s method (Supporting Information).
The compounds were prepared in DMSO and diluted in buffer solution to different concentrations. In a 96-well plate, 140 μL of PBS (pH = 8) buffer, 20 μL of all the sample solutions were transferred in each well, and 20 μL of 0.2 U/mL AChE solution were added. The mixture was incubated at 37°C for 10 minutes. Subsequently, 10 μL of 3 mM 5,5'-dithiobis-(2-nitrobenzoic acid) (DTNB) and 10 μL of 15 mM acetylthiocholine (ATCl) were added, followed by reaction at 37 °C for 20 minutes. […] Each experimental group was set up with three replicate wells, and huperzine A was used as the positive control.

[2] = PC-12, against Aβ25-35-induced PC12 cell damage, MTT, resveratrol as positive control, read-out: EC50 (μM), neuroprotective effect
[3] = PC-12, read-out: EC50 (μM), neuroprotective effect

Structure (SMILES) | Cell viability (PC12 cells; MTT) | other results
CC1N2CCCCC2C23CC(CC4CCCN1C42)C1CCCCN1C3 (racemic) [Compound 1, (±)-Ormohenin A] | 0.641 ± 0.009 | –
CC1N2CCCCC2C23CC(CC4CCCN1C42)C1CCCCN1C3 (racemic) [Compound 2, (±)-Ormohenin B] | 0.693 ± 0.024 | –
C1CC[C@H]([C@@]23C[C@H](C[C@H]4CCCN[C@@H]42)[C@@H]2CCCCN2C3)NC1 (racemic) [Compound 5, (±)-18-epiormosanine] | 0.698 ± 0.032 | –
C1CC[C@@H]([C@@]23C[C@H](C[C@H]4CCCN[C@@H]42)[C@@H]2CCCCN2C3)NC1 (racemic) [Compound 6, (±)-ormosanine] | 0.704 ± 0.038 | –
CC1N2CCCCC2C23CC(CC4CCCN1C42)C1CCCCN1C3 (single isomer, unassigned; (-)) [Compound 3, (−)-ormohenin C] | 0.899 ± 0.061 | IC50 ([1]; improved Ellman's method, huperzine A as positive control, read-out: AChE inhibitory activity IC50): 142 ± 19.6 µM; EC50 (PC12 cells; [2]): 15.5 µM
C[C@@H]1N2CCCC[C@H]2[C@@]23C[C@H](C=C4CCCN1[C@@H]42)[C@@H]1CCCCN1C3 [Compound 4, (−)-ormohenin D] | 0.629 ± 0.013 | –
O=C1CC=C[C@@H]2[C@@H]3C[C@H](CN12)[C@H]1CCCCN1C3 [Compound 7, (6R,7S,9S,11R)-4,5-dehydro-α-isolupanine] | 0.650 ± 0.009 | –
O=c1cccc2n1C[C@H]1C[C@@H]2CN2CC=CC[C@@H]12 [Compound 8, (7S,9S,11S)-15,16-dehydroanagyrine] | 0.662 ± 0.041 | –
O=C1CCC[C@@H]2[C@@H]3C[C@H](CN12)[C@@H]1CCCCN1C3 [Compound 9, (+)-lupanine] | 0.974 ± 0.065 | EC50 (PC12 cells; [3]): 10.4 µM
O=c1cccc2n1C[C@H]1C[C@@H]2CN2CCCC[C@@H]12 [Compound 10, (+)-anagyrine] | 0.645 ± 0.011 | –
O=C1CCC[C@@H]2[C@@H]3C[C@H](CN12)[C@H]1CCCCN1C3 [Compound 11, (+)-α-isolupanine] | 0.653 ± 0.027 | –
O=c1cccc2n1C[C@@H]1CNC[C@H]2C1 [Compound 12, (+)-cytisine] | 0.934 ± 0.031 | IC50 [1]: 6.85 ± 1.2 µM; EC50 (PC12 cells; [3]): 7.99 µM
Oc1ccc(/C=C/c2cc(O)cc(O)c2)cc1 [Resveratrol, reference compound] | 0.82 ± 0.039 | EC50 (PC12 cells; [2]): 5.99 µM
